Results as given in patent US20250101032A1, “EXATECAN DERIVATIVES AND ANTIBODY-DRUG CONJUGATES THEREOF” (priority 2021, published 2025).
In brackets after ≈: the same amount, converted by molar mass. Where two headings read alike, the source gives them in different places.

How the values were obtained:
[1] = system: NCI-N87; assay: In vitro cytotoxicity assay (CellTiter-Glo), NCI-N87; assay type: cell-based, Human; settings: read-out: Cytotoxicity IC50
Protocol: (§1) Human tumor cell lines, SK-BR-3, NCI-H292, HT-29, MCF-7, NCI-N87, and FaDu were obtained from ATCC. NCI-H292, HT-29, MCF-7, and NCI-N87 cells were cultured in RPMI-1640 media (Gibco, Life Technologies) supplemented with 10% v/v heat inactivated FBS (Corning), FaDu cells were maintained in DMEM media (Gibco, Life Technologies) supplemented with 10% v/v heat inactivated FBS (Corning). SK-BR-3 cells were maintained in McCoys 5A medium (Gibco, Life Technologies) supplemented with 10% […] heat inactivated FBS (Corning) at 37° C. in a humidified incubator containing 5% CO2.
(§2) Lyophilized compounds were dissolved in 100% dry DMSO, aliquots frozen and stored at −80° C. Concentration and purity of compound stock solutions in DMSO were determined by RP-HPLC Agilent 1100 platform with 1200 DAD and SofTA ELSD detectors, and the Agilent 6150 MS system (UV/VIS, ELSD purity and MS compound identity confirmation). Shimadzu 3.0 mm×30 mm XR ODS 2.2 μm column was run at 50° C., 1.5 mL/min. Solvent A: 0.1% Formic acid in water, Solvent B: 0.08% Formic acid in methanol-Gradient: 5%-100% B in 3.0 min, 100% solvent B for 0.3 min. Concentration of compounds in 100% DMSO determined by ELS ranged from 1-6 mM.
(§3) Cells were plated in 96-well white flat-bottomed plates (Corning) at 2.0×10^3 cells per well in 100 μL culture medium. After incubation for 24 hours, test compounds were added at a range of concentrations as ten point serial dilution as duplicates or triplicates. Following further incubation for 6 days 37° C., 5% CO2, cell viability was assessed with the use of a CellTiter-Glo Luminescent Cell Viability Assay (Promega). Luminescence was measured using the GloMax instrument (Promega). […] For a subset of payloads, each treatment was independently repeated two to eight times, and IC50 values were averaged. […] Standard deviation (stdev) is shown as (N/A) for treatment performed once.

[2] = system: SKOV3; assay: In vitro cytotoxicity assay (CellTiter-Glo), SKOV3; assay type: cell-based; settings: read-out: Cytotoxicity IC50
Protocol: (§4) Lyophilized compounds were dissolved in 100% dry DMSO, aliquots frozen and stored at −80° C. […] Shimadzu 3.0 mm×30 mm XR ODS 2.2 μm column was run at 50° C., 1.5 mL/min. Solvent A: 0.1% Formic acid in water, Solvent B: 0.08% Formic acid in methanol-Gradient: 5%-100% B in 3.0 min, 100% solvent B for 0.3 min.
as §3

[3] = system: MCF7; assay: In vitro cytotoxicity assay (CellTiter-Glo), MCF7; assay type: cell-based, Human; settings: read-out: Cytotoxicity IC50
Protocol: as §1, §2, §3

[4] = physchem; settings: 25 °C, pH 7.4, aqueous buffer, kinetic from dmso stock
Protocol: In-vitro kinetic solubilities of the compounds in PBS pH 7.4 buffer at 25° C. were determined by diluting compounds from 100% dimethyl sulfoxide (DMSO) into PBS buffer and measuring absorbance at 490, 590 and 650 nm. Stock concentrations in 100% DMSO were provided at 1-6 mM in 100% DMSO. Kinetic solubilities were determined by diluting test compounds from 100% DMSO into PBS pH 7.4 buffer, as duplicate, 10 point 2-fold serial dilution starting at 100× dilution of stock DMS solution into PBS buffer in a clear, flat bottom polystyrene assay plates. Total assay volume was 200 microliters. Solutions were mixed by plate shaking, incubated for 30 m at 25° C., and absorbance was read at 490, 590 and 650 nm. […] in PBS buffer was used as a blank. For each test compound, average optical density (GD) at each concentration was determined by averaging the blank corrected sum of absorption at 490 nm, 590 nm and 650 nm, over duplicate measurements. Turbidity threshold optical density value was set as a sum of mean plus two standard deviations of the mean of absorbances at 490, 590 and 650 nm for 1% (v/v) DMSO in PBS pH 7.4 buffer. Highest soluble concentration (micromolar) corresponded to the highest concentration at which average optical density was below optical density value set for turbidity threshold (Table 4). Amiodarone and propranolol were used as low and high solubility controls respectively.

[5] = system: BXPC3; assay: In vitro cytotoxicity assay (CellTiter-Glo), BXPC3; assay type: cell-based; settings: read-out: Cytotoxicity IC50
Protocol: as §4, §3

[6] = system: NCI-H292; assay: In vitro cytotoxicity assay (CellTiter-Glo), NCI-H292; assay type: cell-based, Human; settings: read-out: Cytotoxicity IC50
Protocol: as §1, §2, §3

[7] = system: SKBR3; assay: In vitro cytotoxicity assay (CellTiter-Glo), SKBR3; assay type: cell-based, Human; settings: read-out: Cytotoxicity IC50
Protocol: as §1, §2, §3

[8] = system: HT29; assay: In vitro cytotoxicity assay (CellTiter-Glo), HT29; assay type: cell-based, Human; settings: read-out: Cytotoxicity IC50
Protocol: as §1, §2, §3

[9] = system: FaDu; assay: In vitro cytotoxicity assay (CellTiter-Glo), FaDu; assay type: cell-based, Human; settings: read-out: Cytotoxicity IC50
Protocol: as §1, §2, §3

[10] = NCI-N87 cells, 6 days incubation, mean of IC50 values
[11] = SKOV3 cells, 6 days incubation, mean of IC50 values
[12] = MCF7 cells, 6 days incubation, mean of IC50 values
[13] = BXPC3 cells, 6 days incubation, mean of IC50 values
[14] = NCI-H292 cells, 6 days incubation, mean of IC50 values
[15] = SKBR3 cells, 6 days incubation, mean of IC50 values
[16] = HT29 cells, 6 days incubation, mean of IC50 values
[17] = FaDu cells, 6 days incubation, mean of IC50 values

| Compound | IC50 ([1]; Homo sapiens, NCI-N87, 144 h) | IC50 ([2]; Homo sapiens, SK-OV-3, 144 h) | IC50 ([3]; Homo sapiens, MCF7, 144 h) | solubility at 30 min [4] | IC50 ([5]; Homo sapiens, BXPC-3, 144 h) | IC50 ([6]; Homo sapiens, NCI-H292, 144 h) | IC50 ([7]; Homo sapiens, SK-BR-3, 144 h) | IC50 ([8]; Homo sapiens, HT-29, 144 h) | IC50 ([9]; Homo sapiens, FaDu, 144 h) | IC50 [1, 10] | IC50 [2, 11] | IC50 [3, 12] | IC50 [5, 13] | IC50 [6, 14] | IC50 [7, 15] | IC50 [8, 16] | IC50 [9, 17] |
| --- | --- | --- | --- | --- | --- | --- | --- | --- | --- | --- | --- | --- | --- | --- | --- | --- | --- |
| CC[C@@]1(O)C(=O)OCc2c1cc1n(c2=O)Cc2c-1nc1cc(F)c(C)c3c1c2[C@@H](NC(=O)Cc1cn(CCO)nn1)CC3 [Compound 66] | 0.03 µM | 0.0433 µM | 0.0239 µM | 21 µM (≈ 12.4 µg/mL) | 0.0098 µM | 0.0247 µM | 0.0073 µM | 0.0781 µM | 0.0079 µM | – | – | – | – | – | – | – | – |
| CC[C@@]1(O)C(=O)OCc2c1cc1n(c2=O)Cc2c-1nc1cc(F)c(C)c3c1c2[C@@H](NC(=O)NCC(O)CO)CC3 (stereo partly shown) [Compound 118] | 0.0966 µM | 0.0967 µM | 0.0459 µM | 30 µM (≈ 16.6 µg/mL) | 0.0527 µM | 0.0884 µM | 0.0239 µM | 0.291 µM | 0.0175 µM | – | – | – | – | – | – | – | – |
| CC[C@@]1(O)C(=O)OCc2c1cc1n(c2=O)Cc2c-1nc1cc(F)c(C)c3c1c2[C@@H](NC(=O)NCCO)CC3 [Compound 42] | 0.012 µM | 0.0195 µM | 0.0118 µM | 8 µM (≈ 4.18 µg/mL) | 0.0056 µM | 0.0024 µM | 0.0052 µM | 0.0102 µM | 0.0029 µM | – | – | – | – | – | – | – | – |
| CC[C@@]1(O)C(=O)OCc2c1cc1n(c2=O)Cc2c-1nc1cc(F)c(C)c3c1c2[C@@H](NCc1cnnn1CCO)CC3 [Compound 109] | 0.0293 µM | 0.0324 µM | 0.0128 µM | 17 µM (≈ 9.53 µg/mL) | 0.0108 µM | 0.0261 µM | 0.0073 µM | 0.0568 µM | 0.0083 µM | – | – | – | – | – | – | – | – |
| CC[C@@]1(O)C(=O)OCc2c1cc1n(c2=O)Cc2c-1nc1cc(F)c(C)c3c1c2[C@@H](NC(=O)OCCO)CC3 [Compound 22] | 0.0026 µM | 0.0019 µM | 0.0023 µM | 23 µM (≈ 12 µg/mL) | 0.0007 µM | 0.0027 µM | 0.0012 µM | 0.0057 µM | 0.0007 µM | – | – | – | – | – | – | – | – |
| CC[C@@]1(O)C(=O)OCc2c1cc1n(c2=O)Cc2c-1nc1cc(F)c(C)c3c1c2[C@@H](NC(=O)CO)CC3 [DXD] | – | – | – | – | – | – | – | – | – | 0.0047 µM | 0.0086 µM | 0.0027 µM | 0.0023 µM | 0.0038 µM | 0.0013 µM | 0.0069 µM | 0.0009 µM |
| CC[C@@]1(O)C(=O)OCc2c1cc1n(c2=O)Cc2c-1nc1cc(F)c(C)c3c1c2[C@@H](NC(=O)CCC(=O)NCC(O)CO)CC3 (stereo partly shown) [Compound 117] | 1.45 µM | 1.09 µM | 0.342 µM | 30 µM (≈ 18.3 µg/mL) | 0.412 µM | 0.888 µM | 0.474 µM | 2.91 µM | 0.234 µM | – | – | – | – | – | – | – | – |
| CC[C@@]1(O)C(=O)OCc2c1cc1n(c2=O)Cc2c-1nc1cc(F)c(C)c3c1c2[C@@H](NC(=O)C12CC(O)(C1)C2)CC3 [Compound 79] | 0.0155 µM | 0.0253 µM | 0.0098 µM | – | 0.0055 µM | 0.014 µM | 0.0059 µM | 0.0317 µM | 0.0023 µM | – | – | – | – | – | – | – | – |
| CC[C@@]1(O)C(=O)OCc2c1cc1n(c2=S)Cc2c-1nc1cc(F)c(C)c3c1c2[C@@H](NC(=S)CO)CC3 [Compound 148] | 0.0002 µM | 0.0002 µM | 0.0001 µM | 3 µM (≈ 1.58 µg/mL) | 0.0001 µM | 0.0011 µM | 0.0003 µM | 0.0009 µM | – | – | – | – | – | – | – | – | – |
| CC[C@@]1(O)C(=O)OCc2c1cc1n(c2=O)Cc2c-1nc1cc(F)c(C)c3c1c2[C@@H](NC(=O)CCC(=O)NCCO)CC3 [Compound 16] | 0.736 µM | 0.341 µM | 0.14 µM | 22 µM (≈ 12.7 µg/mL) | 0.149 µM | 0.29 µM | 0.166 µM | 1.14 µM | 0.072 µM | – | – | – | – | – | – | – | – |
| CC[C@@]1(O)C(=O)OCc2c1cc1n(c2=O)Cc2c-1nc1cc(F)c(C)c3c1c2[C@@H](NC(=O)C1OC(O)C(O)C1O)CC3 (stereo partly shown) [Compound 100] | 0.0786 µM | 0.0905 µM | 0.0288 µM | 29 µM (≈ 16.9 µg/mL) | 0.0269 µM | 0.228 µM | 0.036 µM | 0.0934 µM | 0.007 µM | – | – | – | – | – | – | – | – |
| CC[C@@]1(O)C(=O)OCc2c1cc1n(c2=O)Cc2c-1nc1cc(F)c(C)c3c1c2[C@@H](NC(=O)CCC(=O)NC(CO)(CO)CO)CC3 [Compound 122] | 2.7 µM | 0.819 µM | 0.205 µM | – | 0.227 µM | 1.02 µM | 0.657 µM | 3.4 µM | 0.121 µM | – | – | – | – | – | – | – | – |
| SN-38 | – | – | – | – | – | – | – | – | – | 0.0042 µM | 0.0032 µM | 0.0043 µM | 0.0005 µM | 0.0025 µM | 0.0018 µM | 0.0051 µM | 0.0022 µM |
